Results reported in patent US7915291B2, “Hepatitis C virus inhibitors” (Bristol-Myers Squibb Company, priority 2002, dated 2011).
Read-outs that look alike come from different tables or passages of the source.

Biological target: HCV NS3/4A protease complex, BMS strain (UniProt P27958, C1454S/C1711G, species not given/STRAIN_BMS)
Assay: Recombinant HCV NS3/4A protease complex FRET peptide assay (BMS strain)
Type: biochemical, HCV genotype 1a
How it was run: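 Percent inhibition taken from the linear-range fluorescence slope relative to uninhibited control, read kinetically for about 15 min at 25° C. Enzyme (2-3 nM, BMS NS3/4A complex, lysine-tailed, Ni-NTA purified) met compound for 1 min before 2 μM FRET depsipeptide substrate started cleavage.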

## C=C[C@@H]1C[C@]1(NC(=O)[C@@H]1C[C@@H](Oc2nc(C3CC3)cc3ccccc23)CN1C(=O)[C@@H](NC(=O)OC(C)(C)C)C(C)(C)C)C(=O)NS(=O)(=O)C1CC1 [Compound 34]
BMS strain, read-out: IC50 against the NS3/4A BMS strain in the enzyme assay
  IC50: 23 nM
NS3/4A BMS strain, read-out: IC50 range
  IC50: < 100 nM
